Assay results reported in the NIST ThermoML archive (doi:10.1021/je050159x).

Key:
[1] = for mass density: 101.33 kPa, Liquid
[2] = xn = mol fraction of the nth substance listed

OCc1ccccc1 [benzenemethanol]
[1]
Details | mass density [kg/m3] | surface tension liquid-gas [mN/m]
293.15 K | 1045.2 | 39.05
298.15 K | 1041.4 | 38.58
303.15 K | – | 38.12
308.15 K | – | 37.63
313.15 K | 1029.8 | 37.16
318.15 K | – | 36.63
323.15 K | – | 36.18

OCc1ccccc1 [benzenemethanol] + C1CCCCC1
surface tension liquid-gas [mN/m], [2]
Details | x2 = 0 | x2 = 0.0068 | x2 = 0.0079 | x2 = 0.0107 | x2 = 0.0202 | x2 = 0.0312 | x2 = 0.0409 | x2 = 0.0655
293.15 K | 39.05 | 37.88 | 37.73 | 37.48 | 37.07 | 36.53 | 35.88 | 34.14
298.15 K | 38.58 | 37.43 | 37.39 | 37.15 | 36.68 | 36.25 | 35.66 | 34.04
303.15 K | 38.12 | 37.06 | 36.93 | 36.74 | 36.32 | 35.98 | 35.41 | 33.94
308.15 K | 37.63 | 36.66 | 36.54 | 36.38 | 35.92 | 35.73 | 35.22 | 33.82
313.15 K | 37.16 | 36.29 | 36.12 | 35.99 | 35.58 | 35.47 | 34.96 | 33.72
318.15 K | 36.63 | 35.84 | 35.74 | 35.66 | 35.24 | 35.22 | 34.77 | 33.61
323.15 K | 36.18 | 35.5 | 35.32 | 35.25 | 34.86 | 34.96 | 34.53 | 33.5

OCc1ccccc1 [benzenemethanol] + CCCCCC
surface tension liquid-gas [mN/m], [2]
Details | x2 = 0 | x2 = 0.0068 | x2 = 0.0085 | x2 = 0.0198 | x2 = 0.0215 | x2 = 0.0264 | x2 = 0.0493 | x2 = 0.07
293.15 K | 39.05 | 37.39 | 37.24 | 34.45 | 33.73 | 33.22 | 30.61 | 27.46
298.15 K | 38.58 | 37.1 | 36.85 | 34.74 | 34.04 | 33.56 | 31.06 | 27.96
303.15 K | 38.12 | 36.84 | 36.41 | 35.03 | 34.38 | 33.86 | 31.54 | 28.72
308.15 K | 37.63 | 36.53 | 36.01 | 35.35 | 34.69 | 34.25 | 31.92 | 29.29
313.15 K | 37.16 | 36.3 | 35.6 | 35.63 | 34.99 | 34.59 | 32.35 | 29.9

OCc1ccccc1 [benzenemethanol] + CCCCCCC
surface tension liquid-gas [mN/m], [2]
Details | x2 = 0 | x2 = 0.0065 | x2 = 0.009 | x2 = 0.0112 | x2 = 0.0238 | x2 = 0.0306 | x2 = 0.0445 | x2 = 0.067
293.15 K | 39.05 | 37.77 | 37.07 | – | 33.61 | 32.37 | 28.84 | 26.09
298.15 K | 38.58 | 37.47 | 36.87 | 34.69 | 33.83 | 32.58 | 29.16 | 26.47
303.15 K | 38.12 | 37.1 | 36.62 | 35.02 | 34.05 | 32.82 | 29.43 | 26.89
308.15 K | 37.63 | 36.78 | 36.41 | 35.28 | 34.27 | 33.04 | 29.68 | 27.27
313.15 K | 37.16 | 36.49 | 36.16 | 35.53 | 34.48 | 33.24 | 30 | 27.7
318.15 K | 36.63 | 36.18 | 35.95 | 35.83 | 34.7 | 33.46 | 30.3 | 28.08
323.15 K | 36.18 | 35.92 | 35.74 | 36.11 | 34.95 | 33.68 | 30.61 | 28.46

OCc1ccccc1 [benzenemethanol] + CCCCCCCCC
surface tension liquid-gas [mN/m], [2]
Details | x2 = 0 | x2 = 0.0061 | x2 = 0.008 | x2 = 0.0116 | x2 = 0.0204 | x2 = 0.0329 | x2 = 0.0408 | x2 = 0.0668
293.15 K | 39.05 | 36.83 | 36.33 | 35.34 | 32.52 | 30.44 | 28.73 | 26.66
298.15 K | 38.58 | 36.4 | 35.95 | 35.13 | 32.31 | 30.23 | 28.52 | 26.56
303.15 K | 38.12 | 35.85 | 35.52 | 34.59 | 32.02 | 30 | 28.22 | 26.38
308.15 K | 37.63 | 35.51 | 35.21 | 34.33 | 31.83 | 29.85 | 28.03 | 26.28
313.15 K | 37.16 | 35.03 | 34.84 | 33.98 | 31.61 | 29.62 | 27.82 | 26.19
318.15 K | 36.63 | 34.61 | 34.5 | 33.67 | 31.41 | 29.44 | 27.67 | 26.12
323.15 K | 36.18 | 34.25 | 34.16 | 33.32 | 31.22 | 29.25 | 27.46 | 26.02

C1CCCCC1 [cyclohexane]
[1]
Details | mass density [kg/m3] | surface tension liquid-gas [mN/m]
293.15 K | 778.6 | 25.06
298.15 K | 773.9 | 24.45
303.15 K | – | 23.87
308.15 K | – | 23.21
313.15 K | 759.6 | 22.71
318.15 K | – | 22.05
323.15 K | – | 21.45

C1CCCCC1 [cyclohexane] + OCc1ccccc1
[2], x1 = 1
Details | surface tension liquid-gas [mN/m]
293.15 K | 25.06
298.15 K | 24.45
303.15 K | 23.87
308.15 K | 23.21
313.15 K | 22.71
318.15 K | 22.05
323.15 K | 21.45

CCCCCCC [heptane]
[1]
Details | mass density [kg/m3] | surface tension liquid-gas [mN/m]
293.15 K | 696 | 20.05
298.15 K | 691.9 | 19.54
303.15 K | – | 19.1
308.15 K | – | 18.58
313.15 K | 680 | 18.08
318.15 K | – | 17.6
323.15 K | – | 17.06

CCCCCCC [heptane] + OCc1ccccc1
[2], x1 = 1
Details | surface tension liquid-gas [mN/m]
293.15 K | 20.05
298.15 K | 19.54
303.15 K | 19.1
308.15 K | 18.58
313.15 K | 18.08
318.15 K | 17.6
323.15 K | 17.06

CCCCCC [hexane]
[1]
Details | mass density [kg/m3] | surface tension liquid-gas [mN/m]
293.15 K | 660.2 | 18.56
298.15 K | 655.4 | 18.03
303.15 K | – | 17.44
308.15 K | – | 16.92
313.15 K | 641.4 | 16.38

CCCCCC [hexane] + OCc1ccccc1
[2], x1 = 1
Details | surface tension liquid-gas [mN/m]
293.15 K | 18.56
298.15 K | 18.03
303.15 K | 17.44
308.15 K | 16.92
313.15 K | 16.38

CCCCCCCCC [nonane]
[1]
Details | mass density [kg/m3] | surface tension liquid-gas [mN/m]
293.15 K | 717.7 | 23.04
298.15 K | 713.9 | 22.49
303.15 K | – | 22.04
308.15 K | – | 21.49
313.15 K | 694.2 | 20.94
318.15 K | – | 20.47
323.15 K | – | 19.98

CCCCCCCCC [nonane] + OCc1ccccc1
[2], x1 = 1
Details | surface tension liquid-gas [mN/m]
293.15 K | 23.04
298.15 K | 22.49
303.15 K | 22.04
308.15 K | 21.49
313.15 K | 20.94
318.15 K | 20.47
323.15 K | 19.98
